Data reported in patent US10231957B2, “Histone demethylase inhibitors” (CELGENE QUANTICEL RESEARCH, INC., priority 2014, dated 2019).

Each molecule was assayed on KYSE-150 esophageal carcinoma cell line (assay: In vitro cell-based assay: cellular proliferation via BrdU incorporation). Conditions: Homo sapiens; KYSE-150 cells, BrdU incorporation after 168 hr compound incubation.
Experimental: Cell lines tested include the JMJD2C gene amplified cell line KYSE-150. This is a quantitative ELISA assay measuring DNA incorporation of BrdU during S-phase as a direct readout of cellular proliferation.
Assay Principle: This is a colorimetric immunoassay for the quantification of cell proliferation. Cells treated for 168 hours with test compounds are assayed for their ability to go through S-phase as a measure of their proliferative potential.
Assay Method: The human KYSE-150 (SMAD4 mut, TP53 mut) esophageal carcinoma cell line was seeded at 2,000 cells/well on a 96-well tissue culture treated plate. After an overnight incubation, cells were treated with compound in an […] dilution series with final concentrations ranging from 100 μM to 2 nM. Cells were then incubated in the presence of compound for 168 hr. After compound incubation the cells were assayed using a BrdU Cell Proliferation ELISA (Roche). The cells were first incubated with BrdU labeling reagent for 2 hr. After 2 hr, the BrdU incorporated cells were fixed and denatured, probed with an anti-BrdU-Peroxidase antibody for 1.5 hr and washed. Finally, a tetramethylbenzidine peroxidase substrate was added to each well for 15 min followed by a H2SO4 stop solution. The plate was read at 450 nm, and the raw optical density data was transferred into XLFit (IDBS) for IC50 calculation using the formula: fit=(D+((Vmax*(x^n))/((x^n)+(Km^n))))

Row | IC50 | SMILES
1 | > 10 µM | Cn1nc(-c2cc3nccc(C(=O)O)c3[nH]2)c2ccc(F)cc21 [Example 16, 2-(6-Fluoro-1-methyl-1H-indazol-3-yl)-1H-pyrrolo[3,2-b]pyridine-7-carboxylic Acid]
2 | > 10 µM | COC(=O)c1ccnc2cc(-c3c4cc(Cl)ccc4nn3CCN3CCCC3)[nH]c12 [Example 10d, Methyl 2-{5-chloro-2-[2-(pyrrolidin-1-yl)ethyl]-2H-indazol-3-yl}-1H-pyrrolo[3,2-b]pyridine-7-carboxylate]
3 | ≤ 0.1 µM | CN(c1ccccc1)c1ccc2c(-c3cc4nccc(C(=O)O)c4[nH]3)n(C)nc2c1 [Example 11, 2-{2-Methyl-6-[methyl(phenyl)amino]-2H-indazol-3-yl}-1-H-pyrrolo[3,2-b]pyridine-7-carboxylic Acid]
